According to BindingDB's records for doi:10.1021/jm030233b (Pharmacia, 2003):

What follows are molecules tested against Prothrombin (Homo sapiens, UniProt P00734) (assay: Thrombin Assay). Settings: pH 8; 22 °C.
Method: Human thrombin and substrate were added to a 96-well assay plate containing inhibitor in reaction buffer. […] All compounds were assayed in duplicate at seven concentrations. Percent inhibition at each concentration was calculated from OD405nm value from the experimental and control sample. IC50 values were calculated from a four-parameter logistic regression equation.

| SMILES | IC50 |
| --- | --- |
| N=C(N)c1ccc(CNC(=O)Cc2c(F)ccc(NS(=O)(=O)Cc3ccccc3)c2F)cc1 [N-[(4-carbamimidoylphenyl)methyl]-2-[2,6-difluoro-3-(phenylmethanesulfonamido)phenyl]acetamide] | 26.9 µM |
| CC(C)=Nc1cc(O)c(-c2ccccc2)c(CC(=O)NCc2ccc(C(=N)N)cc2)c1O [N-[(4-carbamimidoylphenyl)methyl]-2-[3,6-dioxo-2-phenyl-5-(propan-2-ylamino)cyclohexa-1,4-dien-1-yl]acetamide] | > 30 µM |

The next molecules have a lower IC50 than those just listed; values first:

| IC50 | SMILES |
| --- | --- |
| 10 µM | N=C(N)c1ccc(CNC(=O)Cc2c(-c3cccc(N)c3)ccc(NCc3ccccc3)c2F)cc1 [2-[6-(3-aminophenyl)-3-(benzylamino)-2-fluorophenyl]-N-[(4-carbamimidoylphenyl)methyl]acetamide] |
| 1.56 µM | N=C(N)c1ccc(CNC(=O)Cc2c(F)ccc(NCCc3ccccc3)c2F)cc1 [N-[(4-carbamimidoylphenyl)methyl]-2-{2,6-difluoro-3-[(2-phenylethyl)amino]phenyl}acetamide] |
| 6.8 µM | N=C(N)c1ccc(CNC(=O)Cc2c(-c3ccccc3)ccc(NCCc3ccccc3)c2O)cc1 [N-[(4-carbamimidoylphenyl)methyl]-2-{2-hydroxy-6-phenyl-3-[(2-phenylethyl)amino]phenyl}acetamide] |
